Laboratory results as given in patent publication US20240116985A1, “STAPLED PEPTIDES AND METHODS THEREOF” (priority 2020, published 2024).
Where two headings read alike, the source gives them in different places.

Assays:
[1] = molecular target: T1, full-length beta-Catenin (Uniprot ID P35222) (Homo sapiens, UniProt P35222); test: Fluorescence polarization IC50 (beta-catenin / 5FAM-TCF4 10-53 competition); format: binding
T1 construct: 10 nM full-length beta-Catenin (Uniprot ID P35222)
T1 sequence (P35222 1-781): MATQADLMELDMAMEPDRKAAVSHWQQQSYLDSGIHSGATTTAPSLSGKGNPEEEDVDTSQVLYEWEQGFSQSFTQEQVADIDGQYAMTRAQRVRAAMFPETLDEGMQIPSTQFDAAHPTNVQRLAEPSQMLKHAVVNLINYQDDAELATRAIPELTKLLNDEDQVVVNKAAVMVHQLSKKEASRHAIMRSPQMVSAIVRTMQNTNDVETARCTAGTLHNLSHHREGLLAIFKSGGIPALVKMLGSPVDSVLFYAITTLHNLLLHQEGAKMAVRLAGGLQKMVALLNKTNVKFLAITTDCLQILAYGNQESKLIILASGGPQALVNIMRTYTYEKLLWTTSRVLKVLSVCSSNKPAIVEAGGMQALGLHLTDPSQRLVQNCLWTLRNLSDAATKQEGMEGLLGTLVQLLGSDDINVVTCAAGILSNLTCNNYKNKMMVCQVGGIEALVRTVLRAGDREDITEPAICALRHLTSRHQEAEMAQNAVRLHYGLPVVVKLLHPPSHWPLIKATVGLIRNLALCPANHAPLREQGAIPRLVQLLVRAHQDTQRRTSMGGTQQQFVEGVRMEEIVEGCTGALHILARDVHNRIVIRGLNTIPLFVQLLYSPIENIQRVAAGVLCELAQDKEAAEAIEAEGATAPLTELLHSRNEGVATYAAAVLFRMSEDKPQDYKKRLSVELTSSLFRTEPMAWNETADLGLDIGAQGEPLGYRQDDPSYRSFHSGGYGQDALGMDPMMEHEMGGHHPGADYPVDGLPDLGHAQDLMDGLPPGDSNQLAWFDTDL

CHI Log D procedure = format: physicochemical; conditions: for CHI Log D: pH 7.4; for chromatographic logD: pH 7.4, CHI Log D
[2] = fluorescence polarization, beta-catenin, read-out: FP EC50
[3] = fluorescence polarization, read-out: beta-Catenin FP IC50

SMILES | IC50 [1, 2] | IC50 ([1]; read-out: beta-Catenin FP IC50) | CHI Log D (CHI Log D procedure) | IC50 ([1]; Table E2-1, read-out: beta-Catenin FP IC50) | chromatographic logD (CHI Log D procedure) | IC50 [1, 3] | IC50 ([1]; read-out: FP EC50)
CC(=O)N1CCC[C@]12CC=CCCCC1(CCCC=CCCCOC(=O)N3CC[C@@](C(=O)N[C@@H](Cc4ccsc4)C(=O)N[C@@H](Cc4csc5ccccc45)C(=O)N[C@@H](CO)C(N)=O)(C3)NC(=O)[C@H](Cc3ccccc3)NC(=O)[C@H](Cc3ccccc3)NC(=O)[C@H](C)NC(=O)[C@H](C)NC(=O)[C@H](CN(CC(=O)O)CC(F)(F)F)NC(=O)[C@H](CC(=O)O)NC1=O)NC(=O)[C@H](CC(C)(C)C)NC(=O)[C@H](CC(=O)O)NC2=O (stereo partly drawn) [I-963, Ac-PL3-Asp-Npg-B5-Asp-TfeGA-Ala-Ala-Phe-Phe-PyrS2-3Thi-BztA-Ser-NH2] | 402 nM | 402 nM | 2.117 |  |  |  | 
CC(=O)N1CCC[C@]12CC=CCCCC1(CCCC=CCOC(=O)N(C)CC[C@@](C)(C(=O)N[C@@H](Cc3ccccc3)C(=O)N[C@@H](Cc3c[nH]c4ccccc34)C(=O)N[C@@H](CCC(N)=O)C(N)=O)NC(=O)[C@H](C(C)C)NC(=O)[C@H](Cc3ccccc3)NC(=O)[C@H](C)NC(=O)[C@H](C)NC(=O)[C@H](CC(=O)O)NC(=O)[C@H](CC(=O)O)NC1=O)NC(=O)[C@H](C)NC(=O)[C@H](CC(=O)O)NC2=O (stereo partly drawn) [I-55, Ac-PL3-Asp-Ala-B5-Asp-Asp-Ala-Ala-Phe-Val-SdN-Phe-Trp-Gln-NH2] |  |  |  | 5000 nM | 1.35 |  | 
CC[C@H](C)[C@@H]1NC(=O)[C@H](CC(=O)O)NC(=O)[C@]2(CC=CCCCC3(CCCC=CCCCCCC[C@@](C)(C(=O)N[C@@H](Cc4ccsc4)C(=O)N[C@@H](Cc4csc5ccccc45)C(=O)N[C@@H](CCC(N)=O)C(N)=O)NC(=O)[C@H](CC(N)=O)NC(=O)[C@H](Cc4ccccc4)NC(=O)[C@H](C)NC(=O)[C@H](C)NC(=O)[C@H](CC(=O)O)NC(=O)[C@H](CC(=O)O)NC3=O)NC1=O)CCCN2C(C)=O (stereo partly drawn) [I-552, Ac-PL3-Asp-Ile-B5-Asp-Asp-Ala-Ala-Phe-Asn-S8-3Thi-BztA-Gln-NH2] |  |  | 2.334 |  |  | 15.5 nM | 15.5 nM
CC[C@H](C)[C@@H]1NC(=O)C[C@H](CC(=O)O)NC(=O)[C@]2(CC=CCCCC3(CCCC=CCCCCCC[C@@](C)(C(=O)N[C@@H](Cc4ccccc4)C(=O)N[C@@H](Cc4csc5ccccc45)C(=O)N[C@@H](CCC(N)=O)C(N)=O)NC(=O)[C@H](CCC(N)=O)NC(=O)[C@H](Cc4ccccc4)NC(=O)[C@H](C)NC(=O)[C@H](C)NC(=O)[C@H](CCC(=O)O)NC(=O)[C@H](CC(=O)O)NC3=O)NC1=O)CCCN2C(C)=O (stereo partly drawn) [I-671, Ac-PL3-RbGlu-Ile-B5-Asp-Glu-Ala-Ala-Phe-Gln-S8-Phe-BztA-Gln-NH2] |  |  | 2.25 |  |  | 3140 nM | 3140 nM
CC[C@H](C)[C@@H]1NC(=O)[C@H](CC(=O)O)NC(=O)[C@]2(CC=CCCCC3(CCCC=CCCCCCC[C@@](C)(C(=O)N[C@@H](Cc4ccccc4)C(=O)N[C@@H](Cc4csc5ccccc45)C(=O)N[C@@H](Cc4c[nH]cn4)C(N)=O)NC(=O)[C@H](CCC(N)=O)NC(=O)[C@H](Cc4ccccc4)NC(=O)[C@H](C)NC(=O)[C@H](C)NC(=O)[C@H](CC(=O)O)NC(=O)[C@H](CC(=O)O)NC3=O)NC1=O)CCCN2C(C)=O (stereo partly drawn) [I-581, Ac-PL3-Asp-Ile-B5-Asp-Asp-Ala-Ala-Phe-Gln-S8-Phe-BztA-His-NH2] |  |  | 2.458 |  |  | 112 nM | 112 nM
CC(=O)N1CCC[C@]12CC=CCCCC1(CCCC=CCCCOC(=O)N3CC[C@@](C(=O)N[C@@H](Cc4ccsc4)C(=O)N[C@@H](Cc4csc5ccccc45)C(=O)N[C@@H](CCC(N)=O)C(N)=O)(C3)NC(=O)[C@H](CO)NC(=O)[C@H](Cc3ccccc3)NC(=O)[C@H](C)NC(=O)[C@H](C)NC(=O)[C@H](Cc3cccc(C(=O)O)c3)NC(=O)[C@H](CC(=O)O)NC1=O)NC(=O)[C@H](CC(C)(C)C)NC(=O)[C@H](CC(=O)O)NC2=O (stereo partly drawn) [I-978, Ac-PL3-Asp-Npg-B5-Asp-3COOHF-Ala-Ala-Phe-Ser-PyrS2-3Thi-BztA-Gln-NH2] | 112 nM | 112 nM | 1.745 |  |  |  | 
CC(=O)N1CCC[C@]12CC=CCCCC1(CCCC=CCCCCCC[C@@](C)(C(=O)N[C@@H](Cc3cccc(F)c3)C(=O)N[C@@H](Cc3csc4ccccc34)C(=O)N[C@@H](Cc3c[nH]cn3)C(N)=O)NC(=O)[C@H](CCC(N)=O)NC(=O)[C@H](Cc3ccsc3)NC(=O)[C@H](C)NC(=O)[C@H](C)NC(=O)[C@H](CCC(=O)O)NC(=O)[C@H](CC(=O)O)NC1=O)NC(=O)[C@H](C)NC(=O)[C@H](CC(=O)O)NC2=O (stereo partly drawn) [I-430, Ac-PL3-Asp-Ala-B5-Asp-Glu-Ala-Ala-3Thi-Gln-S8-3FF-BztA-His-NH2] |  |  |  |  | 2.13 | 154 nM | 
CC[C@H](C)[C@@H]1NC(=O)[C@H](CC(=O)O)NC(=O)[C@]2(CC=CCCCC3(CCCC=CCCCCCC[C@@](C)(C(=O)N[C@@H](Cc4ccccc4OC)C(=O)N[C@@H](Cc4csc5ccccc45)C(=O)N[C@@H](CCC(N)=O)C(N)=O)NC(=O)[C@H](CCC(N)=O)NC(=O)[C@H](Cc4ccccc4)NC(=O)[C@H](C)NC(=O)[C@H](C)NC(=O)[C@H](CCC(=O)O)NC(=O)[C@H](CC(=O)O)NC3=O)NC1=O)CCCN2C(C)=O (stereo partly drawn) [I-528, Ac-PL3-Asp-Ile-B5-Asp-Glu-Ala-Ala-Phe-Gln-S8-2OMeF-BztA-Gln-NH2] |  |  | 2.395 |  |  | 63 nM | 63 nM
CC(=O)N1CCC[C@]12CC=CCCCC1(CCCC=CCCCCCC[C@@](C)(C(=O)N[C@@H](Cc3ccccc3)C(=O)N[C@@H](Cc3csc4ccccc34)C(=O)N[C@@H](CCC(N)=O)C(N)=O)NC(=O)[C@H](CC(N)=O)NC(=O)[C@H](Cc3ccccc3)NC(=O)[C@H](C)NC(=O)[C@H](C)NC(=O)[C@H](CC(=O)O)NC(=O)[C@H](CC(=O)O)NC1=O)NC(=O)[C@H](CC(C)C)NC(=O)[C@H](CC(=O)O)NC2=O (stereo partly drawn) [I-562, Ac-PL3-Asp-Leu-B5-Asp-Asp-Ala-Ala-Phe-Asn-S8-Phe-BztA-Gln-NH2] |  |  | 2.269 |  |  | 51 nM | 51 nM
CC(=O)N1CCC[C@]12CC=CCCCC1(CCCC=CCCCCCC[C@@](C)(C(=O)N[C@@H](Cc3ccccc3)C(=O)N[C@@H](Cc3csc4ccccc34)C(=O)N(C)[C@@H](CO)C(N)=O)NC(=O)[C@H](CC(N)=O)NC(=O)[C@H](Cc3ccccc3)NC(=O)[C@H](C)NC(=O)[C@H](C)NC(=O)[C@H](CCC(=O)O)NC(=O)[C@H](CC(=O)O)NC1=O)NC(=O)[C@H](CC(C)C)NC(=O)[C@H](CC(=O)O)NC2=O (stereo partly drawn) [I-759, Ac-PL3-Asp-Leu-B5-Asp-Glu-Ala-Ala-Phe-Asn-S8-Phe-BztA-NMeS-NH2] |  | 1530 nM | 2.582 |  |  |  | 1530 nM
CC(=O)N1CCC[C@]12CC=CCCCC1(CCCC=CCOC(=O)N(C)CCC[C@@](C)(C(=O)N[C@@H](Cc3cccc(F)c3)C(=O)N[C@@H](Cc3csc4ccccc34)C(=O)N[C@@H](CCC(N)=O)C(N)=O)NC(=O)[C@H](CCC(N)=O)NC(=O)[C@H](Cc3cccc(C)c3)NC(=O)[C@H](C)NC(=O)[C@H](C)NC(=O)[C@H](CN(CC(=O)O)CC(F)(F)F)NC(=O)[C@H](CC(=O)O)NC1=O)NC(=O)[C@H](C)NC(=O)[C@H](CC(=O)O)NC2=O (stereo partly drawn) [I-405, Ac-PL3-Asp-Ala-B5-Asp-TfeGA-Ala-Ala-3MeF-Gln-SeN-3FF-BztA-Gln-NH2] |  |  |  |  | 1.72 | 3820 nM | 
CC(=O)N1CCC[C@]12CC=CCCCC1(CCCC=CCCCOC(=O)N3CC[C@@](C(=O)N[C@@H](Cc4ccsc4)C(=O)N[C@@H](Cc4c[nH]c5cc(Cl)ccc45)C(=O)N[C@@H](Cc4c[nH]cn4)C(N)=O)(C3)NC(=O)[C@H](CC(N)=O)NC(=O)[C@H](Cc3ccccc3)NC(=O)[C@H](C)NC(=O)[C@H](C)NC(=O)[C@H](CC(=O)O)NC(=O)[C@H](CC(=O)O)NC1=O)NC(=O)[C@H](CC(C)(C)C)NC(=O)[C@H](CC(=O)O)NC2=O (stereo partly drawn) [I-798, Ac-PL3-Asp-Npg-B5-Asp-Asp-Ala-Ala-Phe-Asn-PyrS2-3Thi-6C1W-His-NH2] |  | 106 nM |  |  | 2.07 |  | 
CC[C@@H]1NC(=O)[C@H](CC(=O)O)NC(=O)[C@]2(CC=CCCCC3(CCCC=CCCCCCC[C@@](C)(C(=O)N[C@@H](Cc4ccccc4)C(=O)N[C@@H](Cc4csc5ccccc45)C(=O)N[C@@H](CCC(N)=O)C(N)=O)NC(=O)[C@H](CCC(N)=O)NC(=O)[C@H](Cc4ccccc4)NC(=O)[C@H](C)NC(=O)[C@H](C)NC(=O)[C@H](CCC(=O)O)NC(=O)[C@H](CC(=O)O)NC3=O)NC1=O)CCCN2C(C)=O (stereo partly drawn) [I-568, Ac-PL3-Asp-Abu-B5-Asp-Glu-Ala-Ala-Phe-Gln-S8-Phe-BztA-Gln-NH2] |  |  | 2.158 |  |  | 73 nM | 73 nM
CC[C@H](C)[C@@H]1NC(=O)[C@H](CC(=O)O)NC(=O)[C@]2(CC=CCCCC3(CCCC=CCCCCCC[C@@](C)(C(=O)N[C@@H](Cc4ccccc4)C(=O)N[C@@H](Cc4csc5ccccc45)C(=O)N[C@@H](CC(N)=O)C(N)=O)NC(=O)[C@H](CCC(N)=O)NC(=O)[C@H](Cc4ccccc4)NC(=O)[C@H](C)NC(=O)[C@H](C)NC(=O)[C@H](CCC(=O)O)NC(=O)[C@H](CC(=O)O)NC3=O)NC1=O)CCCN2C(C)=O (stereo partly drawn) [I-495, Ac-PL3-Asp-Ile-B5-Asp-Glu-Ala-Ala-Phe-Gln-S8-Phe-BztA-Asn-NH2] |  |  |  |  | 2.35 | 181 nM | 
